This note sets out measurements from US20260138961A1, “MODULATORS OF MITOCHONDRIAL DNA REPLICATION” (Pretzel Therapeutics, Inc., priority 2022, published 2026).

Bounds are passed on as bounds.

For one assay, the target named is T1, POLγA:G848S (Homo sapiens, UniProt P54098, G848S).
T1 sequence (P54098 1-1239 G848S): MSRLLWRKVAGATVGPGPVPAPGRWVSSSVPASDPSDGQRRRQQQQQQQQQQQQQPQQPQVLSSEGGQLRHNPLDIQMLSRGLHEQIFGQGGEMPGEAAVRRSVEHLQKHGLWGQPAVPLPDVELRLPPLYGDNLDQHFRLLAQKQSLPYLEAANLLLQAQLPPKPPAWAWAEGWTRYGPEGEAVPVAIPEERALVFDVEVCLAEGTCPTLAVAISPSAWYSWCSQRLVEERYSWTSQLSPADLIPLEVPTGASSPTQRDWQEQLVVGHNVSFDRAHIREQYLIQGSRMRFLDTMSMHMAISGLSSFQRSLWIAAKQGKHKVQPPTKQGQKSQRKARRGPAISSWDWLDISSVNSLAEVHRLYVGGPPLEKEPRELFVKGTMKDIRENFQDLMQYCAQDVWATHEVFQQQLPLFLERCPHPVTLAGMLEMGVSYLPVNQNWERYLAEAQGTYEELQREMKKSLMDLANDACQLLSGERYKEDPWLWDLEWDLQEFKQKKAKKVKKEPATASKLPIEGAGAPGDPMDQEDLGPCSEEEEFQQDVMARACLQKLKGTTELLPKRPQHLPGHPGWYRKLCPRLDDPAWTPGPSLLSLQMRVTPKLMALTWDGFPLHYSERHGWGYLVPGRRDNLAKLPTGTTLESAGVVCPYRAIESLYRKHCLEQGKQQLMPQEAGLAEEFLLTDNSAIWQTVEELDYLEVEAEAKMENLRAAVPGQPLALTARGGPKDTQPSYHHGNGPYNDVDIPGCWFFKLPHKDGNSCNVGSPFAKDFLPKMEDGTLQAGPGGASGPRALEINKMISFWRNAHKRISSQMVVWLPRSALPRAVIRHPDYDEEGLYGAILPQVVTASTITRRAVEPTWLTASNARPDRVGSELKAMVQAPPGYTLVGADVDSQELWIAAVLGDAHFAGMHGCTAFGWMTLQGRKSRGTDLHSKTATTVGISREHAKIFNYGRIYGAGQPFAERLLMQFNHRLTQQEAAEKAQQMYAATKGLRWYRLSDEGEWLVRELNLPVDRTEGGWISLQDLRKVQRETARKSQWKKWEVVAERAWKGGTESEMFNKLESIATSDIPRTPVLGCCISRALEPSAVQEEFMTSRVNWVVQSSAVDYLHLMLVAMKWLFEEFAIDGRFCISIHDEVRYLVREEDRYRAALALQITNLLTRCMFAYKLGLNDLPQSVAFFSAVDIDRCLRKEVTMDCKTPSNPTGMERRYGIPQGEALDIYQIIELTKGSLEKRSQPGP
T1 sequence (Q9UHN1 1-485 partner): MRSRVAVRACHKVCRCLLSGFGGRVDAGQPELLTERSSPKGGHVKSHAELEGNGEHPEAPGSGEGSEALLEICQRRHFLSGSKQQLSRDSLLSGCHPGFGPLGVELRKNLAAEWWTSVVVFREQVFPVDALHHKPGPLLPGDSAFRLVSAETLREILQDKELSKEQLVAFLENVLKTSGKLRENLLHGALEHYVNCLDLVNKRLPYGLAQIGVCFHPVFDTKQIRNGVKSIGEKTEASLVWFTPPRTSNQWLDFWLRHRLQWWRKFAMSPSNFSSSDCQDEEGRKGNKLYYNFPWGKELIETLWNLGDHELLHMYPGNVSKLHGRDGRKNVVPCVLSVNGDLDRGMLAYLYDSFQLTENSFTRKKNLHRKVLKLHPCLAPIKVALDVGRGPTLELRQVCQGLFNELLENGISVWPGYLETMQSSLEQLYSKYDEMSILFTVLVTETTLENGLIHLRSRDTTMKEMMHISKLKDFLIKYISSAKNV
Nature of the assay: DNA polymerization assay, POLγA:G848S mutant. The conditions noted are these: G848S AC50, stimulation of polymerase activity, primed M13mp18 ssDNA, 37° C. 2 hours. In kind it is biochemical. How it is done:
DNA Polymerization Assay to Monitor Effects on Human Wildtype POLγ and Four Disease-Causing Mutant Variants of Human POLγ.
The ability of small molecules to stimulate the polymerase activity of POLγ was analyzed in a quantitative fluorescence SYBR Green I assay with fluorescence intensity (FI) readout.
In the presence of dNTPs, wild type human POLγ and mutant derivatives thereof were incubated with single-stranded, circular M13mp18 ssDNA hybridized to a short DNA oligonucleotide that functions as a primer for initiation of DNA synthesis. POLγ and mutant derivatives thereof will extend the primer and use the M13mp18 molecule as a template to synthesize long stretches of double-stranded DNA. SYBR Green I, which is a double-stranded DNA-binding dye, was used to quantify formation of double-stranded DNA in the reaction. When bound to double-stranded DNA, SYBR Green I fluorescence increases by up to 100-fold.
The assay was performed in the 384-well plate format. Upon addition of compounds, changes in double-stranded DNA synthesis activity can be monitored by following effects on fluorescent intensity.
The reactions also contained the accessory POLγB subunit, and the human mitochondrial single-stranded DNA binding protein (mtSSB).
The DNA template mixture used in the assay contained 0.5 nM primed M13 mp18 ssDNA, 400 nM mtSSB, 0.1 mM Tris-HCl (pH 8.0), 0.1 mM dNTP, 10 mM MgCl2, 0.1 mg/mL BSA, 1 mM TCEP solution, and 0.02% Triton X-100. The DNA template mixture for the wild type protein contained either 100 μM dNTP, 1 μM dNTP, or 0.1 μM dNTP, designated in Table 2 as 100 μM, 1 μM, and 0.1 μM, respectfully.
Microplates with compounds (0.1 μL in each well) to be tested in the assay were prepared from 10 mM compound stocks in 100% DMSO, and equal amounts of DMSO without any compound were added to positive and negative control wells.
The protein mixture was dispensed (5 μL into each well) into compound plates and incubated at 37° C. for 15 minutes. After incubation, 5 μL of the DNA template mixture was dispensed into each well. The plates were then incubated at 37° C. for 2 hours.
During incubation, a combined stop buffer and detection reagent solution was prepared. The buffer contained 25 mM EDTA (pH 8.0), 0.02% Triton X-100, and SYBR Green I [Invitrogen] diluted 10,000× (for fluorescent readout). EDTA will stop the enzymatic reaction by chelating magnesium ions.
In the case of `Cc1cc(S(=O)(=O)Nc2noc(-c3ccccc3)n2)c(C)cc1Cl` [Example 142, 4-chloro-2,5-dimethyl-N-(5-phenyl-1,2,4-oxadiazol-3-yl)benzenesulfonamide], the AC50 was greater than 100 µM.

The assay is the same for the next values; noted with them: stimulation of polymerase activity, primed M13mp18 ssDNA, 37° C. 2 hours; read-out: G848S AC50.
As to `Cc1cc(S(=O)(=O)Nc2cccc(C(=O)N3CCc4ncnc(C)c4C3)c2)c(C)cc1Cl` [Example 114, 4-chloro-2,5-dimethyl-N-(3-(4-methyl-5,6,7,8-tetrahydropyrido [4,3-d]pyrimidine-6-carbonyl)phenyl)benzenesulfonamide], the AC50 was determined as 50 µM.
Still for that read-out and setting: the figure for `Cc1cc(S(=O)(=O)Nc2cccc(C(=O)N3C[C@@H](F)C[C@H](F)C3)c2)c(C)cc1Cl` [Example 115, 4-chloro-N-(3-((3S,5S)-3,5-difluoropiperidine-1-carbonyl)phenyl)-2,5-dimethylbenzenesulfonamide] is greater than 100 µM; for `Cc1cc(S(=O)(=O)N[C@@H]2CCCN(C(=O)N3CCCC3)C2)c(C)cc1Cl` [Example 153, (R)-4-chloro-2,5-dimethyl-N-(1-(pyrrolidine-1-carbonyl)piperidin-3-yl)benzenesulfonamide] it is greater than 100 µM.
For the compound `O=S(=O)(Nc1csc(-c2ccccc2)n1)c1ccccc1` [Example 147, N-(2-phenylthiazol-4-yl)benzenesulfonamide], the AC50 is greater than 100 µM.
Same read-out and setting: the figure for `O=S(=O)(Nc1csc(-c2ccccc2)n1)c1ccc(F)cc1F` [Example 140, 2,4-difluoro-N-(2-phenylthiazol-4-yl)benzenesulfonamide] is greater than 100 µM; for `Cc1cnc(-c2ccc(C)c(NS(=O)(=O)c3cc(C)c(Cl)cc3C)c2)s1` [Example 98, 4-chloro-2,5-dimethyl-N-(2-methyl-5-(5-methylthiazol-2-yl)phenyl)benzenesulfonamide] it is 9 µM.
`Cc1cc(S(=O)(=O)N[C@H]2CCCN(C(=O)N3CCCC3)C2)c(C)cc1Cl` [Example 130, (S)-4-chloro-2,5-dimethyl-N-(1-(pyrrolidinee-1-carbonyl)piperidin-3-yl)benzenesulfonamide]: the AC50 was greater than 100 µM.
Turning to `O=S(=O)(Nc1csc(-c2ccccc2)n1)c1ccc(F)c(F)c1` [Example 122, 3,4-difluoro-N-(2-phenylthiazol-4-yl)benzenesulfonamide], the AC50 is greater than 100 µM.
As for `Cc1cc(S(=O)(=O)Nc2cccc(C(=O)N3CCCC4(CC4)C3)c2)c(C)cc1Cl` [Example 105, N-(3-(5-azaspiro[2.5]octane-5-carbonyl)phenyl)-4-chloro-2,5-dimethylbenzenesulfonamide], the AC50 stood at 9 µM.
For the compound `Cc1cc(S(=O)(=O)Nc2cccc(-c3ccn(C)n3)c2)c(C)cc1Cl` [Example 18, 4-chloro-2,5-dimethyl-N-(3-(1-methyl-1H-pyrazol-3-yl)phenyl)benzenesulfonamide], the AC50 was 8 µM.
The same measure, in the same setting: the same measure for `Cc1cc(F)ccc1S(=O)(=O)Nc1csc(-c2ccccc2)n1` [Example 124, 4-fluoro-2-methyl-N-(2-phenylthiazol-4-yl)benzenesulfonamide]: 2 µM; for `Cc1cc(S(=O)(=O)Nc2csc(-c3ccccc3)n2)c(F)cc1Cl` [Example 146, 4-chloro-2-fluoro-5-methyl-N-(2-phenylthiazol-4-yl)benzenesulfonamide]: greater than 100 µM; for `O=S(=O)(Nc1csc(-c2ccccc2)n1)c1ccc2ncsc2c1` [Example 137, N-(2-phenylthiazol-4-yl)benzo[d]thiazole-6-sulfonamide]: 11 µM.
Regarding `Cc1cc(S(=O)(=O)Nc2cccc(C(=O)N3CCCC3)c2)c(C)cc1Cl` [Example 119, 4-chloro-2,5-dimethyl-N-(3-(pyrrolidine-1-carbonyl)phenyl) benzenesulfonamide], the AC50 came to 2 µM.
As for `Cc1cc(S(=O)(=O)N[C@H]2CCCN(C(=O)[C@H]3CCCN3C)C2)c(C)cc1Cl` [Example 95, 4-chloro-2,5-dimethyl-N-((S)-1-(methyl-D-prolyl)piperidin-3-yl)benzenesulfonamide], the AC50 is greater than 100 µM.
In the case of `O=S(=O)(Nc1csc(-c2ccccc2)n1)c1ccc(F)cc1Cl` [Example 126, 2-chloro-4-fluoro-N-(2-phenylthiazol-4-yl)benzenesulfonamide], the AC50 was greater than 100 µM.
Take `Cc1cc(S(=O)(=O)Nc2cccc(C(=O)N3C[C@H](C)[C@@H](N)C3)c2)c(C)cc1Cl` [Example 108, N-(3-((3R,4S)-3-amino-4-methylpyrrolidine-1-carbonyl)phenyl)-4-chloro-2,5-dimethylbenzenesulfonamide]: the AC50 is greater than 100 µM.
The same measure, in the same setting: the same measure for `Cc1cc(S(=O)(=O)Nc2csc(-c3ccccc3)n2)ccc1Cl` [Example 148, 4-chloro-3-methyl-N-(2-phenylthiazol-4-yl)benzenesulfonamide]: greater than 100 µM; for `O=S(=O)(Nc1csc(-c2ccccc2)n1)c1ccc(Cl)cc1Cl` [Example 138, 2,4-dichloro-N-(2-phenylthiazol-4-yl)benzenesulfonamide]: greater than 100 µM; for `Cc1cc(S(=O)(=O)Nc2cccc(C(=O)N(C)C(C)CO)c2)c(C)cc1Cl` (single isomer, unassigned) [Example 14, 3-((4-chloro-2,5-dimethylphenyl)sulfonamido)-N-(1-hydroxypropan-2-yl)-N-methylbenzamide]: 16 µM.
The same measure, in the same setting: the same measure for `Cc1cc(S(=O)(=O)Nc2nc(-c3ccccc3)no2)c(C)cc1Cl` [Example 143, 4-chloro-2,5-dimethyl-N-(3-phenyl-1,2,4-oxadiazol-5-yl)benzenesulfonamide]: greater than 100 µM; for `Cc1cc(S(=O)(=O)Nc2cccc(C(=O)N(C(C)C)C3COC3)c2)c(C)cc1Cl` [Example 112, 3-((4-chloro-2,5-dimethylphenyl)sulfonamido)-N-isopropyl-N-(oxetan-3-yl)benzamide]: 40 µM.
